26 molecules from US20230135894A1, “MK2 DEGRADERS AND USES THEREOF” (Kymera Therapeutics, Inc., priority 2021, published 2023) can be followed below.

The target of experiment [1] is T1, MK2 (Homo sapiens, UniProt P49137). The experiment in a line: MK2 degradation in human THP-1 monocytic cells (MSD, 24 h). It is filed as cell-based. Further details: endogenous in cells; key to MK2 MSD THP-1 degradation 24 h GMean External Abs DC50: A (<0.001 μM); B (0.001-0.01 μM); C (0.01-0.1 μM); D (>0.1 μM); —: “-”=not tested or inactive. Conditions: for Dmax: THP-1, THP-1 cells; for DC50 / MK2 MSD THP-1 degradation 24 h GMean External Abs DC50: THP-1 cells; for DC50: read-out: MK2 MSD THP-1 degradation 24 h GMean External Abs DC50. An outline of the steps:
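THP-1 cells (200,000/well) treated 24 h at 37 °C with compound dilution series (up to 10 points, 0.1% DMSO). MK2 in RIPA lysates quantified by MSD sandwich immunoassay. DC50 from 4-parameter logistic fit, DMSO-treated cells as high and lysis buffer as low signal.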

The target in experiment [2] is T1, MK2. Put plainly: MK2 degradation in human SW1353 cells (MSD, 24 h). It is filed as cell-based. Also noted: endogenous in cells; host or cells: SW-1353 (ATCC HTB-94); key to MK2 MSD SW1353 degradation 24 h GMean External Abs DC50: A (<0.001 μM); B (0.001-0.01 μM); C (0.01-0.1 μM); D (>0.1 μM); —: “-”=not tested or inactive. Conditions: for Dmax: read-out: MK2 MSD SW 1353 24 h Dmax %; for DC50: read-out: MK2 MSD SW1353 degradation 24 h GMean External Abs DC50. An outline of the steps: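 SW1353 chondrosarcoma cells were treated with up to 10-point serial dilutions (0.1% DMSO) for 24 h at 37 °C, then lysed in RIPA buffer. MK2 levels were quantified by MSD sandwich immunoassay; DC50 came from a 4-parameter logistic fit normalised to DMSO-treated cells (high) and lysis buffer (low).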

SMILES strings stand for the structures.

T1 sequence (P49137 whole entry): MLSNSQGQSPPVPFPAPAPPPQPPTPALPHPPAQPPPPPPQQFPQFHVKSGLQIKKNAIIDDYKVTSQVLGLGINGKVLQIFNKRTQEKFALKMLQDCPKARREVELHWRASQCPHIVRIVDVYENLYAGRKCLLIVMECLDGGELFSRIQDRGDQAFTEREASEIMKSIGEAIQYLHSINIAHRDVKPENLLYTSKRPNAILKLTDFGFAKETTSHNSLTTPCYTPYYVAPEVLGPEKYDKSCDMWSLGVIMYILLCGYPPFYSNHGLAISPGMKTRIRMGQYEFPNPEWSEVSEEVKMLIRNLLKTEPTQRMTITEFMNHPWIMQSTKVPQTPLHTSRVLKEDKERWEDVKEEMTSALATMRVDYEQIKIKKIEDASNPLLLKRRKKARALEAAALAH

One may read the Dmax as the greatest extent of degradation seen. In general, DC50 refers to the concentration giving 50% degradation. As to `C[C@@H]1CNc2c(sc3ccc4nc(-c5cccc(N6CCN(CCCCCCCCCCc7cccc8c7n(C)c(=O)n8C7CCC(=O)NC7=O)CC6)c5)ccc4c23)C(=O)N1` (some centres unmarked) [Compound I-177], the Dmax in experiment [1] and in experiment [2] was greater than 75% throughout. For the same molecule, the DC50 in experiment [1] and in experiment [2] was 10 to 100 nM in each case.

For `C[C@@H]1CNc2c(sc3ccc4nc(N5CCCN(CC6CCN(c7cccc8c7n(C)c(=O)n8C7CCC(=O)NC7=O)CC6)CC5)ccc4c23)C(=O)N1` (some centres unmarked) [Compound I-442], in experiment [1], the Dmax is less than 50% and the DC50 is greater than 100 nM. Also, in experiment [2], the greatest degradation seen (Dmax) was less than 50% and the DC50 is greater than 100 nM.

On to `Cn1c(=O)n(C2CCC(=O)NC2=O)c2ccc(CCCN3CCN(c4cccc(-c5ccc(-c6cc7c([nH]6)CCNC7=O)cn5)c4)CC3)cc21` (centres unmarked) [Compound I-121], for which the Dmax in experiment [1] and in experiment [2] was less than 50% throughout. The half-maximal degradation concentration (DC50) in experiment [1] and in experiment [2] was greater than 100 nM in each case.

Take `C[C@@H]1CNc2c(sc3ccc4nc(-c5ccc(N6CCC(CN7CCN(c8cccc9c8n(C)c(=O)n9C8CCC(=O)NC8=O)CC7)CC6)cc5F)ccc4c23)C(=O)N1` (some centres unmarked) [Compound I-307]: the greatest degradation seen (Dmax) in experiment [1] and in experiment [2] was greater than 75% each time. Further, the 50% degradation concentration (DC50) in experiment [1] and in experiment [2] was 1 to 10 nM in each case.

Take `C[C@@H]1CNc2c(sc3ccc4nc(-c5ccc(N6CCN(CCCCOc7ccc(C8CCC(=O)NC8=O)cc7)CC6)nc5)ccc4c23)C(=O)N1` (some centres unmarked) [Compound I-183]: in experiment [1], the Dmax was greater than 75% and the “MK2 MSD THP-1 degradation 24 h GMean External Abs DC50” value was “—”. Further, in experiment [2], the “MK2 MSD SW1353 degradation 24 h GMean External Abs DC50” value is recorded as “—” and the maximal degradation (Dmax) is greater than 75%.

As for `C[C@@H]1CNc2c(sc3ccc4nc(N5CCC(CN6CCC7(CC6)CCN(c6ccc8c(c6)n(C)c(=O)n8C6CCC(=O)NC6=O)CC7)CC5)ccc4c23)C(=O)N1` (some centres unmarked) [Compound I-391], in experiment [1], the greatest degradation seen (Dmax) was greater than 75% and the DC50 is less than 1 nM. In experiment [2], the maximal degradation (Dmax) is greater than 75% and the DC50 is less than 1 nM.

Turning to `C[C@@H]1CNc2c(sc3ccc4nc(-c5ccc(N6CCN(CC7CN(c8ccc9c(c8)n(C)c(=O)n9C8CCC(=O)NC8=O)C7)CC6)nc5)ccc4c23)C(=O)N1` (some centres unmarked) [Compound I-254], the Dmax in experiment [1] and in experiment [2] was greater than 75% each time. The half-maximal degradation concentration (DC50) in experiment [1] and in experiment [2] was less than 1 nM throughout.

Consider `C[C@@H]1CNc2c(sc3ccc4nc(-c5ccc(N6CCC(CN7CCN(c8ccc9c(c8)n(C)c(=O)n9C8CCC(=O)NC8=O)CC7)CC6)cc5Cl)ccc4c23)C(=O)N1` (some centres unmarked) [Compound I-292], for which, in experiment [1], the Dmax is greater than 75% and the DC50 is less than 1 nM. In experiment [2], the Dmax is greater than 75% and the DC50 fell in the range of 1 to 10 nM.

Consider `C[C@@H]1CNc2c(sc3ccc4nc(-c5ccc(N6CCC(CN7CCC(c8ccc9c(c8)n(C)c(=O)n9C8CCC(=O)NC8=O)CC7)CC6)cc5F)ccc4c23)C(=O)N1` (some centres unmarked) [Compound I-297], for which, in experiment [1], the Dmax is greater than 75% and the DC50 was less than 1 nM. In experiment [2], the Dmax is greater than 75% and the DC50 is less than 1 nM.

Turning to `C[C@@H]1CNc2c(sc3ccc4nc(N5CCC(N6CC7(CCN(c8ccc9c(c8)n(C)c(=O)n9C8CCC(=O)NC8=O)CC7)C6)CC5)ccc4c23)C(=O)N1` (some centres unmarked) [Compound I-440], the greatest degradation seen (Dmax) in experiment [1] and in experiment [2] was greater than 75% each time. In addition, the 50% degradation concentration (DC50) in experiment [1] and in experiment [2] was less than 1 nM throughout.

Take `Cn1c(=O)n(C2CCC(=O)NC2=O)c2ccc(N3CCC(CN4CCN(c5ccc6occc6c5-c5cc(Nc6ccnc(N)n6)cc6cn[nH]c56)CC4)CC3)cc21` (centres unmarked) [Compound I-453]: in experiment [1], the Dmax is less than 50% and the DC50 is greater than 100 nM. In addition, in experiment [2], the Dmax is less than 50% and the DC50 was greater than 100 nM.

As to `C[C@@H]1CNc2c(sc3ccc4nc(-c5ccc(N6CCN(CCCc7ccc8c(c7)n(C)c(=O)n8C7CCC(=O)NC7=O)CC6)cc5)ccc4c23)C(=O)N1` (some centres unmarked) [Compound I-173], the greatest degradation seen (Dmax) in experiment [1] and in experiment [2] was greater than 75% each time. Also, the DC50 in experiment [1] and in experiment [2] was less than 1 nM in each case.

For `C#Cc1cc(-c2ccc3c(ccc4sc5c(c43)NC[C@@H](C)NC5=O)n2)cc(N2CCN(CC3CCN(c4ccc5c(c4)n(C)c(=O)n5C4CCC(=O)NC4=O)CC3)CC2)c1` (some centres unmarked) [Compound I-186], in experiment [1], the Dmax is greater than 75% and the “MK2 MSD THP-1 degradation 24 h GMean External Abs DC50” value is listed as “—”. In experiment [2], the “MK2 MSD SW1353 degradation 24 h GMean External Abs DC50” value is “—” and the Dmax is greater than 75%.

With `C[C@@H]1CNc2c(sc3ccc4nc(-c5ccc(N6CCN(C7CN(c8cccc9c8n(C)c(=O)n9C8CCC(=O)NC8=O)C7)CC6)cc5)ccc4c23)C(=O)N1` (some centres unmarked) [Compound I-262], in experiment [1], the Dmax is greater than 75% and the DC50 was less than 1 nM. Further, in experiment [2], the greatest degradation seen (Dmax) is greater than 75% and the DC50 is less than 1 nM.

On to `C[C@@H]1CNc2c(sc3ccc4nc(-c5cnc(N6CCN(CC7CCN(c8ccc9c(c8)n(C)c(=O)n9C8CCC(=O)NC8=O)CC7)CC6)nc5)ccc4c23)C(=O)N1` (some centres unmarked) [Compound I-282], for which, in experiment [1], the greatest degradation seen (Dmax) was greater than 75% and the DC50 is less than 1 nM. Also, in experiment [2], the maximal degradation (Dmax) is greater than 75% and the DC50 is less than 1 nM.

`Cc1nc(N2CCN(CCCc3ccc4c(c3)n(C)c(=O)n4C3CCC(=O)NC3=O)CC2)ccc1-c1ccc2c(ccc3sc4c(c32)NC[C@@H](C)NC4=O)n1` (some centres unmarked) [Compound I-259]: in experiment [1], the maximal degradation (Dmax) is less than 50% and the “MK2 MSD THP-1 degradation 24 h GMean External Abs DC50” value was “—”. In experiment [2], the maximal degradation (Dmax) is greater than 75% and the DC50 fell in the range of 1 to 10 nM.

For the molecule `C[C@@H]1CNc2c(sc3ccc4nc(-c5ccc(N6CCC(CN7CCN(c8ccc9c(c8)CN(C8CCC(=O)NC8=O)C9=O)CC7)CC6)cc5)ccc4c23)C(=O)N1` (some centres unmarked) [Compound I-313], the maximal degradation (Dmax) in experiment [1] and in experiment [2] was greater than 75% in each case. The DC50 in experiment [1] and in experiment [2] was 1 to 10 nM each time.

As to `O=C1CCC(N2Cc3cc(N4CCN(CC5CCN(c6ccc(F)c(-c7cc(-c8cc9c([nH]8)CCNC9=O)ccn7)c6)CC5)CC4)ccc3C2=O)C(=O)N1` (centres unmarked) [Compound I-301], in experiment [1], the maximal degradation (Dmax) is less than 50% and the DC50 is greater than 100 nM. In experiment [2], the Dmax was less than 50% and the DC50 was greater than 100 nM.

Take `Cn1c(=O)n(C2CCC(=O)NC2=O)c2cccc(CCCCCCCN3CCN(c4ccc(F)c(-c5cc(-c6cc7c([nH]6)CCNC7=O)ccn5)c4)CC3)c21` (centres unmarked) [Compound I-135]: the Dmax in experiment [1] and in experiment [2] was less than 50% throughout. The DC50 in experiment [1] and in experiment [2] was greater than 100 nM each time.

Consider `C[C@@H]1CNc2c(sc3ccc4nc(-c5ccc(N6CCN(CC7CN(c8cccc9c8n(C)c(=O)n9C8CCC(=O)NC8=O)C7)CC6)cc5)ccc4c23)C(=O)N1` (some centres unmarked) [Compound I-269], for which, in experiment [1], the Dmax is greater than 75% and the half-maximal degradation concentration (DC50) was less than 1 nM. Moreover, in experiment [2], the Dmax was greater than 75% and the DC50 was 1 to 10 nM.

Regarding `Cn1c(=O)n(C2CCC(=O)NC2=O)c2ccc(CCCCCCN3CC4(CCN(c5ccc6c(c5)Cn5cc(-c7ccc(F)cc7)cc5-c5nccn5-6)C4)C3)cc21` (centres unmarked) [Compound I-168], in experiment [1], the Dmax is less than 50% and the DC50 is greater than 100 nM. In experiment [2], the Dmax was less than 50% and the DC50 is greater than 100 nM.

Turning to `C[C@@H]1CNc2c(sc3ccc4nc(-c5ccc(N6CCN(CC7CCN(c8ccc9c(c8)n(C)c(=O)n9C8CCC(=O)NC8=O)CC7)CC6)cc5)ccc4c23)C(=O)N1` (some centres unmarked) [Compound I-130], in experiment [1], the Dmax is greater than 75% and the DC50 was less than 1 nM. Further, in experiment [2], the maximal degradation (Dmax) is greater than 75% and the 50% degradation concentration (DC50) is less than 1 nM.

For the molecule `C[C@@H]1CNc2c(sc3ccc4nc(-c5cccc(N6CCN(C(=O)COCCOCCOCCOCCc7ccc8c(c7)n(C)c(=O)n8C7CCC(=O)NC7=O)CC6)c5)ccc4c23)C(=O)N1` (some centres unmarked) [Compound I-36], in experiment [1], the Dmax is greater than 75% and the half-maximal degradation concentration (DC50) was 1 to 10 nM. Moreover, in experiment [2], the Dmax was greater than 75% and the DC50 was 1 to 10 nM.

For the molecule `C[C@@H]1CNc2c(sc3ccc4nc(-c5ccc([C@H]6CC[C@H](CN7CCN(c8ccc9c(c8)n(C)c(=O)n9C8CCC(=O)NC8=O)CC7)CC6)nc5)ccc4c23)C(=O)N1` (some centres unmarked) [Compound I-232], in experiment [1], the greatest degradation seen (Dmax) was greater than 75% and the half-maximal degradation concentration (DC50) was less than 1 nM. In experiment [2], the greatest degradation seen (Dmax) was greater than 75% and the DC50 was less than 1 nM.

On to `CC(C)c1cc(-c2ccc3c(ccc4sc5c(c43)NC[C@@H](C)NC5=O)n2)cc(N2CCN(CC3CCN(c4ccc5c(c4)n(C)c(=O)n5C4CCC(=O)NC4=O)CC3)CC2)c1` (some centres unmarked) [Compound I-231], for which, in experiment [1], the Dmax is greater than 75% and the DC50 fell in the range of 1 to 10 nM. In experiment [2], the Dmax was greater than 75% and the DC50 lay within 1 to 10 nM.

In the case of `C[C@@H]1Cc2[nH]c(-c3ccnc(-c4ccc(N5CCC(CN6CCC(c7ccc8c(c7)n(C)c(=O)n8C7CCC(=O)NC7=O)CC6)CC5)cc4)c3)cc2C(=O)N1` (some centres unmarked) [Compound I-263], in experiment [1], the Dmax was greater than 75% and the 50% degradation concentration (DC50) is less than 1 nM. Also, in experiment [2], the Dmax is greater than 75% and the DC50 is less than 1 nM.
